The source of these data is patent US11708338B2, “Substituted phenyl sulfonyl phenyl triazole thiones and uses thereof” (Neuropore Therapies, Inc., priority 2017, dated 2023).

The experiment deals with Translocator Protein (18 kDa) (TSPO). Kind of experiment: TSPO immunofluorescence in cortex of L61 mice, 3 month administration study. The conditions noted are these: L61 ASYN transgenic mice, 5 and 10 mg/kg i.p. daily, 3 months. In kind it is in vivo, mouse. On the procedure: Compound 1 was injected into L61 ASYN transgenic mice and non-transgenic control mice (i.p., once daily) at doses of 5 and 10 mg/kg for 3 months (79 total mice, n=14-17 mice per treatment group). The vehicle control consisted of a solution containing 5% DMSO+20% Cremphor EL+0.9% normal saline. The baseline grip strength of mice was evaluated prior to starting treatments for the 3 month study, and then re-evaluated following 70 days of treatment with vehicle or Compound 1 (5 or 10 mg/kg, i.p. daily).
Neuroinflammation is associated with increased expression of the 18-kDa translocator protein (TSPO), which is a marker for inflammation and is present on the mitochondria of activated microglia, astroglia and macrophages (Crawshaw and Robertson 2017). The effects of Compound 1 on the levels of Translocator Protein (18 kDa) (TSPO) were assessed in both L61 ASYN transgenic and non-transgenic mice in the aforementioned 3 month administration study. At the end of the study, the mice were sacrificed, and immunofluorescence (IF) detection of TSPO were assessed in the harvested brain tissues.
FIGS. 15A-B show the levels of TSPO immunolabeling in representative cross-sections of the cortex of the mice. […]

With `O=S(=O)(c1ccc(-n2cn[nH]c2=S)cc1)c1ccc(Cl)c(C(F)(F)F)c1` [Compound 1, 4-(4-((4-chloro-3-(trifluoromethyl)phenyl)sulfonyl)phenyl)-2,4-dihydro-3H-1,2,4-triazole-3-thione], the “levels of TSPO in cortex vs vehicle control” value is listed as “significantly decreased”.
